Source: publication PMC10644722, “Discovery of inhibitors of protein tyrosine phosphatase 1B contained in a natural products library from Mexican medicinal plants and fungi using a combination of enzymatic and in silico methods**” (Frontiers in Pharmacology, 2023)
Where “and” joins values, the source holds several entries; their conditions need not be identical. Equal entries are not always repeated. Where two headings read alike, the source gives them in different places.

Target: T1, hPTP1B1-400 (Homo sapiens, UniProt P18031)
T1 sequence (P18031 1-400): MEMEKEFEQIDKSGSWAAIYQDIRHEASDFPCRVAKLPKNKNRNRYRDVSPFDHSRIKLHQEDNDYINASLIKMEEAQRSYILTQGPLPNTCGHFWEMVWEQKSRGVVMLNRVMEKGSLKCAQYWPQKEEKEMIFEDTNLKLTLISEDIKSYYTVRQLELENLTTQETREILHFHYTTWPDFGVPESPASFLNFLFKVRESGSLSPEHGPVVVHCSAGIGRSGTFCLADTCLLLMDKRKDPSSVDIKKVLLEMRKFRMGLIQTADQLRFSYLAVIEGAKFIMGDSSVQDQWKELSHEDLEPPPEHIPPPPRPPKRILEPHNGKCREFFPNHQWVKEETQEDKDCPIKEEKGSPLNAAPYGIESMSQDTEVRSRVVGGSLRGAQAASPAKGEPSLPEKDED
Assay: PTP1B inhibition assay (spectrophotometric, 4-nitrophenyl phosphate)
Type: biochemical
Conditions: for ΔA, activity difference between UA and the compound: absolute pIC50 difference against ursolic acid
Procedure: The inhibitory activity was determined as a percentage compared to the blank (Buffer) according to the following equation: %InhibitionPTP1B=1−A405s/A405b×100%, (1) where A405(s) is the ΔA of the sample (At20 − At0), A405(b) is the ΔA of the blank obtained in the same manner as that of the sample. Using the data obtained, the enzyme inhibition curve was plotted, for which the average percentage of inhibition was plotted as a function of the inhibitor concentration.

[1] = Hill1 model fit, Origin 8.0, axis C (mM), read-out: k of the IC50 curve
[2] = enzyme 66 nM, 4-NP 0.125 mM, Tris-HCl pH 6.8, 20 min, room temperature, read-out: IC50
[3] = negative log of the IC50 in Molar
[4] = DoseResp model fit, Origin 8.0, axis C (mM), read-out: LOGx0 of the IC50 curve
[5] = negative log of the IC50 in Molar, read-out: pIC50 (converted)

| Molecule | IC50 [1] [mM] | ΔA, activity difference between UA and the compound | IC50 [2] [mM] | pIC50 [3] | IC50 [4] [mM] | %I (0.02 mM compound) [%] | %I (1 mM compound) [%] | IC50 (IC50 (μM), enzyme 66 nM, 4-NP 0.125 mM, Tris-HCl pH 6.8, 20 min, room temperature) [mM] | IC50 (LOGx0 of the IC50 curve, DoseResp model fit, Origin 8.0, axis C (mM)) [mM] | IC50 (pIC50, negative log of the IC50 in Molar) [mM] | IC50 [5] [mM] |
| --- | --- | --- | --- | --- | --- | --- | --- | --- | --- | --- | --- |
| 4-Hydroxy-3,3',5-trimetoxybibencyl [Compound 77] | 0.221 ± 0.147 | 1.0 | 0.221 ± 0.0001 | 3.66 | – | – | – | – | – | – | – |
| 5,7-Diacetylchrysin [Compound 54] | 0.362 ± 0.0378 | 1.2 | 0.3618 ± 4e-05 | 3.44 | – | – | – | – | – | – | – |
| 7-Methylluteolin [Compound 50] | – | 1.3 | 0.4349 ± 8e-06 | 3.36 | 0.435 ± 0.00856 | – | – | – | – | – | – |
| COc1cc(OC2OC(CO)C(O)C(O)C2O)c2c(-c3ccc(O)c(O)c3)cc(=O)oc2c1 [Compound 2, 5-O-(β-D-Glucopyranosyl)-7-methoxy-3'-4'-dihydroxy-4-phenylcoumarin] | – | 0.3 | – | – | – | 42.48 ± 1.16 | 95.13 ± 0.54 | 0.0404 ± 2e-05 | 0.0404 ± 0.0232 | 0.0407 | – |
| CC(=CCCC(C)C1CCC2(C)C3=CCC4C(C)(C)C(=O)CCC4(C)C3CCC12C)C(=O)O (stereo not drawn) [Compound 4, Masticadienonic acid] | – | 0.4 | 0.0491 ± 4e-06 | – | 0.0491 ± 0.00475 | – | – | – | – | – | 0.049 |
| COc1cc(-c2cc(=O)c3c(O)c(O)c(OC)cc3o2)ccc1O [Compound 5, 4',5,6-Trihydroxy-3',7-dimethoxyflavone] | – | 0.42 and 0.4 | 0.0573 ± 2e-05 | – | 0.0573 ± 0.0213 | – | – | – | – | – | 0.0575 |
| C=C(C)[C@H]1COc2c(C)cc3oc4c(C[C@H](O)C(C)(C)O)ccc(O)c4c(=O)c3c2[C@@H]1O [Compound 7, Tajixanthone hydrate] | – | 0.6 | 0.0832 ± 1e-06 | – | 0.0832 ± 0.00124 | – | – | – | – | – | 0.0832 |
| O=C(OCC1OC(Oc2c(-c3ccc(O)c(O)c3)oc3cc(O)cc(O)c3c2=O)C(O)C(O)C1O)c1ccccc1 [Compound 8, Quercetin-3-O-(6''-benzoyl)-β-D-galactoside] | – | 0.6 | 0.0888 ± 5e-05 | – | 0.0888 ± 0.0504 | – | – | – | – | – | 0.0891 |
| COc1cc(C)c2c(=O)c3c(O)cc(OC)cc3oc2c1 [Compound 9, Lichexanthone] | – | 0.6 | 0.0888 ± 5e-06 | – | 0.0888 ± 0.00531 | – | – | – | – | – | 0.0891 |
| CC(C)(O)C(O)C1CC(C2CCC3(C)C4=CCC5C(C)(C)C(=O)CCC5(C)C4CCC23C)C(O)O1 (stereo not drawn) [Compound 10, Melianodiol] | – | 0.6 | 0.0921 ± 4e-05 | – | – | – | – | – | – | – | 0.0912 |
| CC(C)(O)CCC(=O)[C@](C)(O)[C@H]1[C@H](O)C[C@@]2(C)[C@@H]3CC=C4[C@@H](C[C@H](O)[C@@H](O[C@@H]5O[C@H](CO)[C@@H](O)[C@H](O)[C@H]5O)C4(C)C)[C@]3(C)C(=O)C[C@]12C [Compound 14, 3-O-β-D-Glucopyranosyl-23,24-dihydrocucurbitacin F] | – | 1.2 | 0.3583 ± 1.2e-05 | 3.45 | 0.358 ± 0.0127 | – | – | – | – | – | – |
| CC(=O)OC(C)(C)/C=C/C(=O)[C@](C)(O)[C@H]1[C@H](O)C[C@@]2(C)[C@@H]3CC=C4[C@@H](C[C@H](O[C@@H]5O[C@H](CO)[C@@H](O)[C@H](O)[C@H]5O)C(=O)C4(C)C)[C@]3(C)C(=O)C[C@]12C [Compound 15, Arvenin I] | 0.564 ± 0.041 | 1.4 | 0.5643 ± 4.1e-05 | 3.25 | – | – | – | – | – | – | – |
| CC(=O)OC[C@H]1O[C@@H](Oc2cc(O)cc3oc(=O)cc(-c4ccc(O)cc4)c23)[C@H](O)[C@@H](O)[C@H]1O [Compound 18, 6''-O-Acetyl-5-O-β-D-galactopyranosyl-7,4'-dihydroxy-4-phenylcoumarin] | 0.349 ± 0.0341 | 1.2 | 0.3486 ± 3e-05 | 3.46 | – | – | – | – | – | – | – |
| Oc1cccc(CCc2ccc3c(c2)OCO3)c1 [Compound 25] | – | 1.5 | 0.6621 ± 0.00013 | 3.18 | 0.662 ± 0.134 | – | – | – | – | – | – |
| C=C1C(=O)O[C@@H]2C[C@@]3(C)CCC=C(C)[C@@H]3C[C@H]12 [Compound 32, Isoalloalantolactone] | – | 1.3 | 0.4432 ± 5e-05 | 3.35 | 0.443 ± 0.0513 | – | – | – | – | – | – |
| COc1cc(O)cc(CCc2cccc(O)c2)c1 [Compound 34, Batatasin III] | – | 1.1 | 0.2474 ± 7e-05 | – | 0.247 ± 0.0675 | – | – | – | – | – | 0.245 |
| CN1C(=O)c2ccccc2-n2c(nc3ccccc3c2=O)[C@@H]1Cc1ccccc1 [Compound 40, Benzomalvin A] | – | 1.3 | 0.4242 ± 5e-06 | – | 0.424 ± 0.00536 | – | – | – | – | – | 0.427 |
| COc1c(O)cc2cc(OC)c3cc(O)ccc3c2c1OC [Compound 41, Gymnopusin] | – | 1.3 | 0.4314 ± 1e-05 | – | 0.431 ± 0.0111 | – | – | – | – | – | 0.427 |
| CCCCCCCCCCCCCCCCCCCCOC(=O)C=Cc1ccc(O)c(OC)c1 [Compound 43, Eicosyl 4-hydroxy-3-methoxy-cinnamate] | – | 1.5 | 0.6483 ± 0.00013 | – | 0.648 ± 0.131 | – | – | – | – | – | 0.646 |
| COc1ccc([C@H]2OC[C@H]3[C@@H]2CO[C@@H]3c2ccc3c(c2OC)OCO3)cc1OC [Compound 47, 2'-Methoxykobusin] | 0.125 ± 0.00914 | 0.8 | 0.1253 ± 9e-06 | 3.90 | – | – | – | – | – | – | – |
| C/C(=C/CC[C@H](C)[C@@H]1CC[C@]2(C)C3=CC[C@H]4C(C)(C)[C@H](O)CC[C@]4(C)[C@H]3CC[C@@]12C)C(=O)O [Compound 49, 3α-Hydroxymasticadienonic acid] | – | 0.8 | 0.1507 ± 5e-06 | 3.82 | 0.151 ± 0.0053 | – | – | – | – | – | – |
| O=c1c(O[C@@H]2O[C@H](CO)[C@H](O)[C@H](O)[C@H]2O)c(-c2ccc(O)cc2)oc2cc(O)cc(O)c12 [Compound 51, Trifolin] | – | 1.6 | 0.859 ± 0.0003 | – | 0.859 ± 0.0259 | – | – | – | – | – | 0.851 |
| O=C1C[C@@H](c2ccccc2)Oc2cc(O)cc(O)c21 [Compound 53, Pinocembrin] | – | 1.1 | 0.3062 ± 2e-05 | – | 0.306 ± 0.0184 | – | – | – | – | – | 0.309 |
| C[C@H]1C(=O)CC[C@@H]2[C@]1(C)CC[C@H]1[C@@]2(C)CC[C@@]2(C)[C@@H]3CC(C)(C)CC[C@]3(C)CC[C@]12C [Compound 56, Friedelin] | – | 1.6 and 1.61 | 0.8878 ± 4e-05 | – | 0.888 ± 0.0408 | – | – | – | – | – | 0.891 |
| COc1cc(=O)oc2c(O[C@@H]3O[C@H](CO)[C@@H](O)[C@H](O)[C@H]3O)ccc(C)c12 [Compound 63, 8-β-D-glucopyranosyloxy-4-methoxy-5-methyl-coumarin] | – | 0.9 | 0.1657 ± 2e-05 | 3.78 | 0.166 ± 0.0177 | – | – | – | – | – | – |
| C=C(C)C(C)(C)CCC(C)C1CCC2(C)C3CCC4C(C)(CCC(O)C4(C)C)C3=CCC12C (stereo not drawn) [Compound 64, 5α-lanosta-24,24-dimethyl-9(11),25-dien-3β-ol] | – | 1.3 | 0.3985 ± 3e-05 | – | 0.399 ± 0.025 | – | – | – | – | – | 0.398 |
